The structures appear in SMILES notation. ± gives the standard deviation of the averaged measurements.

This assay has as its system SK-N-MM (SKNMM-MYCN, doxycycline-inducible MYCN). As to the kind of experiment: area under dose-response curve (CellTiter-Glo viability normalised to plate controls) (AUC (arbitrary units)); higher = more loss of viability; extreme values may be limits of the assay. In outline:
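In 96-well plates, SK-N-MM cells with doxycycline-inducible MYCN (1250 cells/100 μL) were given medium with or without doxycycline about 24 h after plating. Compound dilution series of 10 points at 1:3 were added two days later and again on day 4, and CellTiter-Glo luminescence was recorded 3 or 8 days after drugging. The area under the dose-response curve was derived from log2 signals normalised to the positive and negative controls on each plate.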
(Cellular ATP, detected with luciferase, serves as a proxy for viable cell number.)

Where [1] appears, read: MYCN induction (doxycycline): +doxycycline (MYCN induced), time after drugging: 3 days.
[2] abbreviates: MYCN induction (doxycycline): +doxycycline (MYCN induced), time after drugging: 8 days.
Where [3] appears, read: MYCN induction (doxycycline): no doxycycline (MYCN not induced), time after drugging: 3 days.
[4] abbreviates: MYCN induction (doxycycline): no doxycycline (MYCN not induced), time after drugging: 8 days.

For the molecule `C=CCn1c(=O)c2cnc(Nc3ccc(N4CCN(C)CC4)cc3)nc2n1-c1cccc(C(C)(C)O)n1` [MK-1775], the “area under dose-response curve” value worked out at 105 ± 20 under setting [1], 159 ± 26 under setting [2], 42.5 ± 14 under setting [3] and 98.1 ± 4.8 under setting [4].
Consider `Nc1nc2[nH]cnc2c(=S)[nH]1` [THIOGUANINE], for which the “area under dose-response curve” value is, setting by setting: under setting [1], 26.6; under setting [2], 54.3; under setting [3], 10.2; under setting [4], 21.2.
Consider `COc1c(C)c2c(c(O)c1C/C=C(\C)CCC(=O)OCCN1CCOCC1)C(=O)OC2` [MYCOPHENOLATE MOFETIL], for which the “area under dose-response curve” value by setting is: under setting [1], 43.8; under setting [2], 115; under setting [3], 25.9; under setting [4], 51.4.
For the molecule `CC1CS(=O)(=O)CCN1/N=C/c1ccc([N+](=O)[O-])o1` (stereo not given) [NIFURTIMOX], the “area under dose-response curve” value under setting [1] came to 3.58, the “area under dose-response curve” value under setting [2] was found to be 0, the “area under dose-response curve” value under setting [3] is 0 and the “area under dose-response curve” value under setting [4] stood at 0.144.
Regarding `CN1CCC(CNc2ccc3ncc(-c4cccc(OC(F)(F)F)c4)n3n2)CC1` [SGI-1776], the “area under dose-response curve” value is 144 under setting [2] and 138 under setting [4].
For `Cc1nc(=O)c2cc(CN(C)c3ccc(C(=O)N[C@@H](CCC(=O)O)C(=O)O)s3)ccc2[nH]1` [RALTITREXED], the “area under dose-response curve” value amounted to 22.3 under setting [1], 166 under setting [2], 6.42 under setting [3] and 63.1 under setting [4].
The corresponding values for `CNC(=O)c1ccccc1Sc1ccc2c(/C=C/c3ccccn3)n[nH]c2c1` [AXITINIB] are 52.9, 109, 32.4 and 69.7.
With `COc1cc(NCc2ccc3nc(N)nc(N)c3c2C)cc(OC)c1OC` [TRIMETREXATE], the “area under dose-response curve” value runs as follows: under setting [1], 27.5; under setting [2], 140; under setting [3], 18.8; under setting [4], 47.1.
For `CC[C@H](Nc1nc(NCc2cnc(C)cc2C)c2ncn(C(C)C)c2n1)[C@@H](C)O` [CYC-065], the “area under dose-response curve” value under setting [1] was found to be 66.2, the “area under dose-response curve” value under setting [2] turned out to be 165, the “area under dose-response curve” value under setting [3] was 45.7 and the “area under dose-response curve” value under setting [4] worked out at 160.
On to `N#CC[C@H](C1CCCC1)n1cc(-c2ncnc3[nH]ccc23)cn1` [RUXOLITINIB], for which the “area under dose-response curve” value is, setting by setting: under setting [1], 27.6; under setting [2], 121; under setting [3], 22.3; under setting [4], 100.
For `C[C@@H](Oc1cc(-c2cnn(C3CCNCC3)c2)cnc1N)c1c(Cl)ccc(F)c1Cl` [CRIZOTINIB], the “area under dose-response curve” value under setting [1] came out at 145, the “area under dose-response curve” value under setting [2] turned out to be 196, the “area under dose-response curve” value under setting [3] was determined as 147 and the “area under dose-response curve” value under setting [4] worked out at 178.
As to `O=C(NC1CCNCC1)c1n[nH]cc1NC(=O)c1c(Cl)cccc1Cl` [AT-7519], the “area under dose-response curve” value is, setting by setting: under setting [1], 48.9; under setting [2], 113; under setting [4], 65.7.
For the molecule `COc1cc([C@@H]2c3cc4c(cc3[C@@H](O[C@@H]3O[C@@H]5CO[C@@H](C)O[C@H]5[C@H](O)[C@H]3O)[C@H]3COC(=O)[C@H]23)OCO4)cc(OC)c1O` [ETOPOSIDE], the “area under dose-response curve” value by setting is: under setting [1], 42.1; under setting [2], 114; under setting [3], 18.8; under setting [4], 43.1.
`CC1(C)CCC(CN2CCN(c3ccc(C(=O)NS(=O)(=O)c4ccc(NCC5CCOCC5)c([N+](=O)[O-])c4)c(Oc4cnc5[nH]ccc5c4)c3)CC2)=C(c2ccc(Cl)cc2)C1` [VENETOCLAX]: the “area under dose-response curve” value was 2.61 ± 3.7 under setting [2], 0 under setting [3] and 0 under setting [4].
For `CCN(CC)CCNC(=O)c1c(C)[nH]c(/C=C2\C(=O)Nc3ccc(F)cc32)c1C` [SUNITINIB], the “area under dose-response curve” value stood at 3.49 under setting [1], 132 under setting [2], 3.64 under setting [3] and 140 under setting [4].
As for `Cc1ccc(Nc2nccc(N(C)c3ccc4c(C)n(C)nc4c3)n2)cc1S(N)(=O)=O` [PAZOPANIB], the “area under dose-response curve” value reads like this: under setting [1], 21.1; under setting [2], 40.1; under setting [3], 18.1; under setting [4], 29.2.
In the case of `COc1cc2c(cc1-c1c(C)noc1C)ncc1[nH]c(=O)n([C@H](C)c3ccccn3)c12` [I-BET151], the “area under dose-response curve” value is, setting by setting: under setting [1], 10.5; under setting [2], 46.3; under setting [3], 14.6; under setting [4], 36.3.
For `C/C=C1\NC(=O)[C@H]2CSSCC/C=C/[C@H](CC(=O)N[C@H](C(C)C)C(=O)N2)OC(=O)[C@H](C(C)C)NC1=O` [ROMIDEPSIN], the “area under dose-response curve” value worked out at 231 under setting [1], 416 under setting [2], 165 under setting [3] and 398 under setting [4].
As for `Cn1cnc2c(F)c(Nc3ccc(Br)cc3Cl)c(C(=O)NOCCO)cc21` [SELUMETINIB], the “area under dose-response curve” value runs as follows: under setting [1], 0; under setting [2], 0; under setting [3], 0.45; under setting [4], 18.9.
`Clc1ccc(NN=C(c2ccccc2)c2ccccn2)nc1` [JIB-04]: the “area under dose-response curve” value reads like this: under setting [1], 33.4; under setting [2], 152; under setting [3], 17.8; under setting [4], 37.1.
Regarding `CC1(C)CCC(C)(C)c2cc(NC(=O)c3ccc(C(=O)O)cc3)ccc21` [TAMIBAROTENE], the “area under dose-response curve” value runs as follows: under setting [1], 1.1; under setting [2], 3.09; under setting [3], 0; under setting [4], 0.
With `CC[C@@H]1C(=O)N(C)c2cnc(Nc3ccc(C(=O)NC4CCN(C)CC4)cc3OC)nc2N1C1CCCC1` [BI-2536], the “area under dose-response curve” value was 85.3 under setting [1], 213 under setting [2], 65.4 under setting [3] and 92.1 under setting [4].
For `Cc1cccc(-c2nn3c(c2-c2ccnc4ccc(C(N)=O)cc24)CCC3)n1`, the “area under dose-response curve” value was found to be 0 under setting [1], 0 under setting [2], 0 under setting [3] and 0 under setting [4].
With `CC(=O)Nc1cccc(-n2c(=O)n(C3CC3)c(=O)c3c(Nc4ccc(I)cc4F)n(C)c(=O)c(C)c32)c1` [TRAMETINIB], the “area under dose-response curve” value runs as follows: under setting [1], 54.2; under setting [2], 206; under setting [3], 42.4; under setting [4], 152.
Take `CN(N=O)C(=O)N[C@H]1C(O)O[C@H](CO)[C@@H](O)[C@@H]1O` (mixture of isomers) [STREPTOZOSIN]: the “area under dose-response curve” value reads like this: under setting [1], 0; under setting [2], 0; under setting [3], 0.

Values taken from the supplement of paper PMC7021759.
